Measurements published in patent publication US7714014B2, “Targeting GLI proteins in human cancer by small molecules” (The Regents of the University of California, priority 2005, dated 2010).
“Also recorded” adds a separate entry of the source.

Legend:
[1] = system: NSCLC cell lines H1299, A549, H460 and colon cancer cell line SW480; test: Cell survival assay (crystal violet), screening; format: cell-based, human; details: 50 and 100 μM, 3 days, all cancer cell lines tested
Experimental: (§1) Typically, the small molecule compounds of the present invention were dissolved in DMSO at a concentration of 30 mM. The small molecule compounds were then tested under cell culture conditions at different concentrations ranging from 0, 10, 30, 50, to 100 uM. To determine cell survival after treatment, the cells were incubated with the small molecule compounds in 6-well plates for about 3 days. After removal of the cell culture medium, 1-ml of 0.5% crystal violet solution (prepared in 20% ethanol and 20% methanol) was added to stain the cells for 5 min. Then the crystal violet solution was rinsed clean with tap water. Cell survival was estimated based on the density of crystal stained plates.
Cancer cell lines were plated in 6-well plates as described, and incubated with 50, and 100 μM of each compound (stocks were dissolved in DMSO at 30 mM) for 3 days. […] Apoptosis analysis was also carried out by using flow cytometry and the results were consistent (data not shown). Therefore, using the rational design design-screen approach described herein, additional small molecule compound, FN1-8, inhibiting GLI3 transcription activation domain (TAF-binding domain) was identified.

[2] = system: melanoma cell lines A375, G361, SK-Mel-2, SK-Mel-5, and SK-Mel-28; test: Dose titration, cell killing; format: cell-based, human; details: A375, 2-40 μM tested, 3 days; similar effect in G361, SK-Mel-2, SK-Mel-5, SK-Mel-28
Experimental: as §1
Dose titration experiments of small molecule compound FN1-8 was performed using the melanoma cell lines A375, G361, SK-Mel-2, SK-Mel-5, and SK-Mel-28. A 375 cells were plated in 6-well plates and incubated with DM SO (control) or 2 μM, 5 μM, 10 μM, 20 μM, and 40 μM of FN1-8, respectively, for 3 days. A dramatic and dose-dependent cell killing in this cell line was observed when FN1-8 was added at 10 μM or more (data not shown). […]

[3] = system: cytosolic β-catenin in melanoma cell lines A375 and SK-Mel-5; test: Western blot of cytosolic β-catenin; format: cell-based, human; details: 10 μM or 20 μM
Experimental: […] Protein concentrations were measured using Bio-Rad Protein Assay reagent. Whole cell lysate protein (5-20 ug) were boiled for 5 min and separated by 10-20% SDS-PAGE. Proteins were transferred to an Immobilon-P membrane (Millipore Corp., Bedford, Mass.) using semi-dry transfer cell (Bio-Rad; Benicia, Calif.). The membranes were blocked with 5% nonfat milk powder and 0.1% Tween 20 in Tris-buffer saline overnight at 4° C. and then incubated with primary antibody for 1 h at room temperature. Membranes were washed in 5% nonfat milk powder and 0.1% Tween 20 in Tris-buffer saline for three 10-min periods. Horseradish peroxidase-conjugated goat anti-rabbit or donkey anti-mouse antibodies were used as secondary antibodies. Proteins were visualized with chemiluminescence luminol reagents (Santa Cruz Bio-technology). Anti-Dvl-3, and anti-Survivin, antibodies were from Santa Cruz Biotechnology (Santa Cruz, Calif.). Anti-Caspase3 antibody was from Oncogene (Cambridge, Mass.). Anti-β-Actin antibody was from Sigrna-Aldrich Corp. (St. Louis, Mo.). Anti-β-catenin antibody was from Transduction Laboratories (Lexington, Ky.). Anti-Cytochrome c antibody was from BD Biosciences (San Diego, Calif.). For detecting alteration of β-catenin cytosolic extracts were prepared and examined as described previously in the publications from our lab. […]

Melanoma LOX tumor = test: Mouse Xenograft Model (Melanoma LOX); format: in vivo; details: 50 mg/kg i.p. daily for 2×6 days
Experimental: The small molecule compound FN1-8 was tested in vivo in the mouse xenograft model bearing human cancer cells. Briefly, female athymic nude mice strain NCRNU-M (5-10 weeks old, 20-25 grams in weight; Taconic, Germantown, N.Y.) was maintained in pathogen-free conditions. Three human cancer cell lines: NSCLC H460, melanoma LOX, (both showing Gli3 activation), and colon cancer HT29 (no Gli3 activation, as a negative control), were used. Ten mice were used in each group and injected s.c. with 3×10^6 cancer cells in the dorsal area in a volume of 100 μl. After inoculation, human cancer cells were allowed to grow in mice for 7 days to become visible tumor nodules. Animals were then injected with small molecule compound FN1-8 at a dose of 50 mg/kg body weight (1 mg/mouse per day). DMSO alone was used as control. […] Tumor size was measured every three days, and tumor volumes were calculated using width (x) and length (y) (x^2y/2, where x<y). […]
In vivo efficacy study of small molecule compound FN1-8 were performed using a Mouse Xenograft Model (Melanoma Lox). […] Tumor size and tumor volumes were calculated as described above.
Three weeks after the initial tumor inoculation and the treatment as described above, tumors were dissected from the mice of each group and their weights were measured using a scale.

## O=C(NCCc1ccc(O)cc1)C1C(c2ccccc2)=NN(c2ccccc2)C1c1ccccc1 (centres unmarked) [FN1-8, N-(2-(4-Hydroxyphenyl)ethyl)-1,3,5-triphenyl-4,5-dihydro-pyrazole-4-carboxyamide]
[1]
  cell killing: Dramatic cell killing
[2]
  concentration at which dramatic and dose-dependent cell killing was observed: ≥ 10 µM
[3]
  cytosolic β-catenin level: down-regulated
Melanoma LOX tumor
  tumor growth: dramatically suppressed; also recorded: significantly suppressed
Melanoma LOX tumor; three weeks after inoculation
  tumor weight: dramatically decreased
